ChEMBL document CHEMBL1134027, “An improved method for the rapid preparation of 2-amino-4,4a-dihydro-4a,7-dimethyl-3H-phenoxazine-3-one, a novel antitumor agent” (2001)

Key:
Assay type in all cases: functional
HL-60 [1] = assay: Inhibition of incorporation of [3H]thymidine into DNA of human myeloid leukemia HL-60 cell at 200 uM after 8 hr
[2] = Inhibition of incorporation of [3H]thymidine into DNA of human lymphoid leukemia HAL-01 cell at 0 uM after 2 hr
[3] = Inhibition of incorporation of [3H]thymidine into DNA of human lymphoid leukemia HAL-01 cell at 200 uM after 4 hr
[4] = Inhibition of incorporation of [3H]thymidine into DNA of human lymphoid leukemia HAL-01 cell at 0 uM after 4 hr
[5] = Inhibition of incorporation of [3H]thymidine into DNA of human lymphoid leukemia HAL-01 cell at 0 uM after 1 hr
[6] = Inhibition of incorporation of [3H]thymidine into DNA of human lymphoid leukemia HAL-01 cell at 0 uM after 8 hr
HL-60 [7] = assay: Inhibition of incorporation of [3H]thymidine into DNA of human myeloid leukemia HL-60 cell at 200 uM after 1 hr
[8] = Inhibition of incorporation of [3H]thymidine into DNA of human lymphoid leukemia HAL-01 cell at 200 uM after 8 hr
[9] = Inhibition of incorporation of [3H]thymidine into DNA of human lymphoid leukemia HAL-01 cell at 200 uM after 1 hr
HL-60 [10] = assay: Inhibition of incorporation of [3H]thymidine into DNA of human myeloid leukemia HL-60 cell at 200 uM after 2 hr
[11] = Inhibition of incorporation of [3H]thymidine into DNA of human lymphoid leukemia HAL-01 cell at 200 uM after 2 hr
HL-60 [12] = assay: Inhibition of incorporation of [3H]-thymidine into DNA of human myeloid leukemia HL-60 cell at 0 uM after 4 hr
HL-60 [13] = assay: Inhibition of incorporation of [3H]thymidine into DNA of human myeloid leukemia HL-60 cell at 200 uM after 4 hr
HL-60 [14] = assay: Inhibition of incorporation of [3H]-thymidine into DNA of human myeloid leukemia HL-60 cell at 100 uM after 4 hr
[15] = Inhibition of incorporation of [3H]thymidine into DNA of human lymphoid leukemia HAL-01 cell at 100 uM after 4 hr
HL-60 [16] = assay: Inhibition of incorporation of [3H]thymidine into DNA of human myeloid leukemia HL-60 cell at 0 uM after 1 hr
[17] = Inhibition of incorporation of [3H]thymidine into DNA of human lymphoid leukemia HAL-01 cell at 100 uM after 8 hr
[18] = Inhibition of incorporation of [3H]thymidine into DNA of human lymphoid leukemia HAL-01 cell at 100 uM after 2 hr
HL-60 [19] = assay: Inhibition of incorporation of [3H]thymidine into DNA of human myeloid leukemia HL-60 cell at 0 uM after 8 hr
[20] = Inhibition of incorporation of [3H]thymidine into DNA of human lymphoid leukemia HAL-01 cell at 100 uM after 1 hr
HL-60 [21] = assay: Inhibition of incorporation of [3H]thymidine into DNA of human myeloid leukemia HL-60 cell at 100 uM after 8 hr
HL-60 [22] = assay: Inhibition of incorporation of [3H]thymidine into DNA of human myeloid leukemia HL-60 cell at 100 uM after 1 hr
HL-60 [23] = assay: Inhibition of incorporation of [3H]thymidine into DNA of human myeloid leukemia HL-60 cell at 0 uM after 2 hr
HL-60 [24] = assay: Inhibition of incorporation of [3H]thymidine into DNA of human myeloid leukemia HL-60 cell at 100 uM after 2 hr

Work on `Cc1ccc2c(c1)OC1(C)CC(=O)C(N)=CC1=N2` (centres undefined) yielded a No. of cells (HL-60 [1]) of 12000, a No. of cells [2] of 25000 and a No. of cells [3] of 10000. The No. of cells [4] was 34000, the No. of cells [5] was 0 and the No. of cells [6] was 40000. For the same compound, the No. of cells (HL-60 [7]) was 0, the No. of cells [8] was 14000 and the No. of cells [9] was 0. It also gave a No. of cells (HL-60 [10]) of 6000, a No. of cells [11] of 9000 and a No. of cells (HL-60 [12]) of 25000. It also gave a No. of cells (HL-60 [13]) of 9000, a No. of cells (HL-60 [14]) of 15000 and a No. of cells [15] of 18000. For the same compound, the No. of cells (HL-60 [16]) was 0, the No. of cells [17] was 19000 and the No. of cells [18] was 17000. It also gave a No. of cells (HL-60 [19]) of 35000, a No. of cells [20] of 0 and a No. of cells (HL-60 [21]) of 19000. It also gave a No. of cells (HL-60 [22]) of 0, a No. of cells (HL-60 [23]) of 21000 and a No. of cells (HL-60 [24]) of 14000.
